Consider 27 molecules from patent publication EP2951180B1, “2,6,7,8 SUBSTITUTED PURINES AS HDM2 INHIBITORS” (Merck Sharp & Dohme Corp., priority 2013, dated 2014).

SMILES strings stand for the structures.

In one test the target is T1, HDM2 (Homo sapiens, UniProt Q00987).
T1 construct: Thioredoxin (N); made in house; host or cells: E. coli strain BL21(DE3)Rosetta
T1 sequence (Q00987 17-125): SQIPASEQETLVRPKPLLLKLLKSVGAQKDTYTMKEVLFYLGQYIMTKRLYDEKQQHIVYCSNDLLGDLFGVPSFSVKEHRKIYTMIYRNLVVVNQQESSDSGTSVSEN
As to the kind of experiment: HDM2 FRET assay (inhibition of binding of FITC labeled p53-pocket peptide to HDM2). The settings on record: Table 10; read-out: FRET IC50. The method in brief: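 Final: 0.5 nM His-HDM2, 3 nM FITC peptide, 0.25 nM Tb anti-His Ab; PBS, 0.01% BSA, 0.01% Tween-20; 0.1% DMSO.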
For `CC(c1nc2nc(C(=O)O)nc(N[C@H](C)C3CCC3)c2n1Cc1ccc(C(F)(F)F)cc1)N(C)Cc1ccccc1` (stereo partly drawn) [Example 10.12, 8-(1-(benzyl(methyl)amino)ethyl)-6-(((R)-1-cyclobutylethyl)amino)-7-(4-(trifluoromethyl)benzyl)-7H-purine-2-carboxylic acid], the IC50 amounted to 139 nM.

On to `C[C@@H](Nc1nc(C(=O)O)nc2nc(CN(C)Cc3ccccc3)n(Cc3ccc(C(F)(F)F)cc3)c12)C1CCC1` [Example 10.13, (R)-8-((benzyl(methyl)amino)methyl)-6-((1-cyclobutylethyl)amino)-7-(4-(trifluoromethyl)benzyl)-7H-purine-2-carboxylic acid], for which the IC50 amounted to 47.7 nM.

For the molecule `C[C@@H](Nc1nc(C(=O)O)nc2nc(CN(C)C3CCCCC3)n(Cc3ccc(C(F)(F)F)cc3)c12)C1CCC1` [Example 10.14, (R)-6-((1-cyclobutylethyl)amino)-8-((cyclohexyl(methyl)amino)methyl)-7-(4-(trifluoromethyl)benzyl)-7H-purine-2-carboxylic acid], the IC50 came out at 4.53 nM.

With `C[C@@H](Nc1nc(C(=O)O)nc2nc(C(=O)N[C@@H](CO)c3ccccc3)n(Cc3ccc(C(F)(F)F)cc3)c12)C1CCC1` [Example 10.15, 6-(((R)-1-cyclobutylethyl)amino)-8-(((R)-2-hydroxy-1-phenylethyl)carbamoyl)-7-(4-(trifluoromethyl)benzyl)-7H-purine-2-carboxylic acid], the IC50 was 202 nM.

For `CC(C)CNC(=O)c1nc2nc(C(=O)O)nc(N[C@H](C)C3CCC3)c2n1Cc1ccc(C(F)(F)F)cc1` [Example 10.16, (R)-6-((1-Cyclobutylethyl)amino)-8-(isobutylcarbamoyl)-7-(4-(trifluoromethyl)benzyl)-7H-purine-2-carboxylic acid], the IC50 was determined as 37 nM.

As for `C[C@@H](Nc1nc(C(=O)O)nc2nc(C(=O)NCC3CC3)n(Cc3ccc(C(F)(F)F)cc3)c12)C1CCC1` [Example 10.17, (R)-6-((1-Cyclobutylethyl)amino)-8-((cyclopropylmethyl)carbamoyl)-7-(4-(trifluoromethyl)benzyl)-7H-purine-2-carboxylic acid], the IC50 came out at 67.7 nM.

Turning to `C[C@@H](Nc1nc(C(=O)O)nc2nc(C(=O)NCc3ccccc3)n(Cc3ccc(C(F)(F)F)cc3)c12)C1CCC1` [Example 10.18, (R)-8-(Benzylcarbamoyl)-6-((1-cyclobutylethyl)amino)-7-(4-(trifluoromethyl)benzyl)-7H-purine-2-carboxylic acid], the IC50 was 58.9 nM.

For `C[C@@H](Nc1nc(C(=O)O)nc2nc(C(=O)NC3CCCCC3)n(Cc3ccc(C(F)(F)F)cc3)c12)C1CCC1` [Example 10.19, (R)-6-((1-Cyclobutylethyl)amino)-8-(cyclohexylcarbamoyl)-7-(4-(trifluoromethyl)benzyl)-7H-purine-2-carboxylic acid], the concentration for half-maximal inhibition (IC50) is 68 nM.

For `C[C@@H](Nc1nc(C(=O)O)nc2nc(C(=O)Nc3ccccc3)n(Cc3ccc(C(F)(F)F)cc3)c12)C1CCC1` [Example 10.20, (R)-6-((1-Cyclobutylethyl)amino)-8-(phenylcarbamoyl)-7-(4-(trifluoromethyl)benzyl)-7H-purine-2-carboxylic acid], the IC50 was 189 nM.

`C[C@@H](Nc1nc(C(=O)O)nc2nc(C(=O)N3CCCC(C)(C)C3)n(Cc3ccc(C(F)(F)F)cc3)c12)C1CCC1` [Example 10.21, (R)-6-((1-Cyclobutylethyl)amino)-8-(3,3-dimethylpiperidine-1-carbonyl)-7-(4-(trifluoromethyl)benzyl)-7H-purine-2-carboxylic acid]: the IC50 was 22.3 nM.

In the case of `C[C@@H](Nc1nc(C(=O)O)nc2nc(C3=N[C@H](c4ccccc4)CO3)n(Cc3ccc(C(F)(F)F)cc3)c12)C1CCC1` [Example 10.22, 6-(((R)-1-Cyclobutylethyl)amino)-8-((R)-4-phenyl-4,5-dihydrooxazol-2-yl)-7-(4-(trifluoromethyl)benzyl)-7H-purine-2-carboxylic acid], the IC50 was 28.4 nM.

For `C[C@@H](Nc1nc(C(=O)O)nc2nc(C3CCCCN3C)n(Cc3ccc(C(F)(F)F)cc3)c12)C1CCC1` (stereo partly drawn) [Example 10.23, 6-(((R)-1-Cyclobutylethyl)amino)-8-(1-methylpiperidin-2-yl)-7-(4-(trifluoromethyl)benzyl)-7H-purine-2-carboxylic acid], the half-inhibitory concentration (IC50) came out at 48 nM.

`C[C@@H](Nc1nc(C(=O)O)nc2nc(C3CCCCN3)n(Cc3ccc(C(F)(F)F)cc3)c12)C1CCC1` (stereo partly drawn) [Example 10.24, 6-(((R)-1-Cyclobutylethyl)amino)-8-(piperidin-2-yl)-7-(4-(trifluoromethyl)benzyl)-7H-purine-2-carboxylic acid]: the IC50 amounted to 96.3 nM.

For `CCN1CCCCC1c1nc2nc(C(=O)O)nc(N[C@H](C)C3CCC3)c2n1Cc1ccc(C(F)(F)F)cc1` (stereo partly drawn) [Example 10.25, 6-(((R)-1-Cyclobutylethyl)amino)-8-(1-ethylpiperidin-2-yl)-7-(4-(trifluoromethyl)benzyl)-7H-purine-2-carboxylic acid], the IC50 was 35.4 nM.

For the molecule `CCCN(c1nc2nc(C(=O)O)nc(N[C@H](C)C3CCC3)c2n1Cc1ccc(C(F)(F)F)cc1)[C@@H](C)c1cccc(F)c1` [Example 10.26, 6-{[(1R)-1-cyclobutylethyl]amino}-8-{[(1S)-1-(3-fluorophenyl)ethyl](propyl)amino}-7-[4-(trifluoromethyl)benzyl]-7H-purine-2-carboxylic acid], the half-inhibitory concentration (IC50) turned out to be 1.94 nM.

On to `C=CCN(c1nc2nc(C(=O)O)nc(N[C@H](C)C3CCC3)c2n1Cc1ccc(C(F)(F)F)cc1)[C@@H](C)c1cccc(F)c1` [Example 10.27, 8-(Allyl((S)-1-(3-fluorophenyl)ethyl)amino)-6-(((R)-1-cyclobutylethyl)amino)-7-(4-(trifluoromethyl)benzyl)-7H-purine-2-carboxylic acid], for which the IC50 amounted to 9.84 nM.

For `C=CCN(c1nc(C(=O)O)nc2nc(N[C@@H](C)c3cccc(F)c3)n(Cc3ccc(C(F)(F)F)cc3)c12)[C@H](C)C1CCC1` [Example 10.28, 6-(Allyl((R)-1-cyclobutylethyl)amino)-8-(((S)-1-(3-fluorophenyl)ethyl)amino)-7-(4-(trifluoromethyl)benzyl)-7H-purine-2-carboxylic acid], the IC50 amounted to 22.2 nM.

For `C[C@@H](Nc1nc(C(=O)O)nc2nc(N(CC3CC3)[C@@H](C)c3ccccc3)n(Cc3ccc(C(F)(F)F)cc3)c12)C1CCC1` [Example 10.29, 6-(((R)-1-Cyclobutylethyl)amino)-8-((cyclopropylmethyl)((S)-1-phenylethyl)amino)-7-(4-(trifluoromethyl)benzyl)-7H-purine-2-carboxylic acid], the IC50 was 35.3 nM.

Turning to `C=CCN(c1nc2nc(C(=O)O)nc(N[C@H](C)C3CCC3)c2n1Cc1ccc(C(F)(F)F)cc1)C(C)c1ccccn1` (stereo partly drawn) [Example 10.30, 8-(Allyl(1-(pyridin-2-yl)ethyl)amino)-6-(((R)-1-cyclobutylethyl)amino)-7-(4-(trifluoromethyl)benzyl)-7H-purine-2-carboxylic acid], the IC50 was 9.07 nM.

For the molecule `C=CCN(c1nc(C(=O)O)nc2nc(NC(C)c3ccccn3)n(Cc3ccc(C(F)(F)F)cc3)c12)[C@H](C)C1CCC1` (stereo partly drawn) [Example 10.31, 6-(allyl((R)-1-cyclobutylethyl)amino)-8-((1-(pyridin-2-yl)ethyl)amino)-7-(4-(trifluoromethyl)benzyl)-7H-purine-2-carboxylic acid], the IC50 was found to be 54.9 nM.

In the case of `CCCN(c1nc2nc(C(=O)O)nc(N[C@H](C)C3CCC3)c2n1Cc1ccc(C(F)(F)F)cc1)C(C)c1ccccn1` (stereo partly drawn) [Example 10.32, 6-(((R)-1-cyclobutylethyl)amino)-8-(propyl(1-(pyridin-2-yl)ethyl)amino)-7-(4-(trifluoromethyl)benzyl)-7H-purine-2-carboxylic acid], the IC50 was found to be 3.72 nM.

On to `CC1CCN(C)C(c2nc3nc(C(=O)O)nc(N[C@H](C)C4CCC4)c3n2C[C@H]2CC[C@H](C)CC2)C1` (stereo partly drawn) [Example 10.33, 6-(((R)-1-Cyclobutylethyl)amino)-8-(1,4-dimethylpiperidin-2-yl)-7-((trans-4-methylcyclohexyl)methyl)-7H-purine-2-carboxylic acid], for which the half-maximal inhibitory concentration (IC50) was 17.7 nM.

As for `CCN1CCC(C)CC1c1nc2nc(C(=O)O)nc(N[C@H](C)C3CCC3)c2n1C[C@H]1CC[C@H](C)CC1` (stereo partly drawn) [Example 10.34, 6-(((R)-1-Cyclobutylethyl)amino)-8-(1-ethyl-4-methylpiperidin-2-yl)-7-((trans-4-methylcyclohexyl)methyl)-7H-purine-2-carboxylic acid], the IC50 came to 5.98 nM.

Still in this test, the particulars now being: Table 11; read-out: FRET IC50.
On to `CC1CCCN(c2nc3nc(C(=O)O)nc(N[C@H](C)C4CCC4)c3n2C[C@H]2CC[C@H](C)CC2)C1C` (stereo partly drawn) [Example 11.1, 6-(((R)-1-cyclobutylethyl)amino)-8-(2,3-dimethylpiperidin-1-yl)-7-((trans-4-methylcyclohexyl)methyl)-7H-purine-2-carboxylic acid], for which the IC50 was 4.55 nM.

For `CC(C)CC1CCCCN1c1nc2nc(C(=O)O)nc(N[C@H](C)C3CCC3)c2n1C[C@H]1CC[C@H](C)CC1` (stereo partly drawn) [Example 11.2, 6-(((R)-1-cyclobutylethyl)amino)-8-(2-isobutylpiperidin-1-yl)-7-((trans-4-methylcyclohexyl)methyl)-7H-purine-2-carboxylic acid], the IC50 turned out to be 1.82 nM.

With `CC(C)CC1CCCCN1c1nc2nc(-c3noc(=O)[nH]3)nc(N[C@H](C)C3CCC3)c2n1C[C@H]1CC[C@H](C)CC1` (stereo partly drawn) [Example 11.3, 3-(6-(((R)-1-cyclobutylethyl)amino)-8-(2-isobutylpiperidin-1-yl)-7-((trans-4-methylcyclohexyl)methyl)-7H-purine-2-yl)-1,2,4-oxadiazol-5(4H)-one], the concentration for half-maximal inhibition (IC50) was determined as 6.14 nM.

With `C[C@@H](Nc1nc(C(=O)O)nc2nc(N3CCCCC3C3CCCCC3)n(C[C@H]3CC[C@H](C)CC3)c12)C1CCC1` (stereo partly drawn) [Example 11.4, 6-(((R)-1-cyclobutylethyl)amino)-8-(2-cyclohexylpiperidin-1-yl)-7-((trans-4-methylcyclohexyl)methyl)-7H-purine-2-carboxylic acid], the IC50 stood at 1.56 nM.

By IC50 is commonly meant the point on the concentration scale where inhibition reaches its midpoint.
